Consider six molecules from US8273562B2, “Method for producing 4-hydroxy-L-isoleucine” (Ajinomoto Co., Inc., priority 2006, dated 2012).

One data set deals with human pancreatic islets. The following applies: stimulating effect dependent on plasma glucose concentrations; cited from earlier work.
In data set [1] the test system is isolated perfused rat pancreas. The settings on record: stimulating effect dependent on plasma glucose concentrations; cited from earlier work.
Another data set deals with IDO(Lys,23) (Bacillus thuringiensis, UniProt E2GIN1).
In data set [2] the target is T1, L-Ile hydroxylase (Bacillus thuringiensis, UniProt E2GIN1).
T1 construct: made in house; host or cells: Bacillus thuringiensis 2-e-2 (natural producer; enzyme purified by chromatography, not recombinant)
Description: Effects of inhibitors on 4-hydroxyisoleucine production by purified L-Ile hydroxylase. Format: biochemical. The following applies: 10 mM inhibitor; 4-hydroxyisoleucine production with no inhibitor = 100%; pH 6, 30° C., 1 hour. Here is the method:
Each fraction was reacted using an Ile hydroxylation activity reaction mixture (100 mM HEPES (pH 6.0), 5 mM L-Ile, 5 mM Fe^2+, 5 mM 2-oxoglutaric acid, 5 mM ascorbic acid at final concentrations) at 30° C. for 30 minutes. The enzyme was inactivated at 100° C., and then the amount of 4-hydroxyisoleucine was quantified by the aforementioned AMKP and HIL separation and measurement method. The 4-hydroxyisoleucine referred to in the subsequent analysis indicates a substance that is substantially composed of the isomer having the same retention time as that of the naturally occurring 4-hydroxyisoleucine. The enzyme activity that produces 1 nmol of HIL per minute was defined as 1 U.
By using L-Ile hydroxylase prepared as described in Example 2, the effect of inhibitors on the production of 4-hydroxyisoleucine were examined. The enzymatic reaction solution contained 5 mM Ile, 5 mM Fe^2+, 5 mM 2-oxoglutaric acid, 5 mM ascorbic acid, and 100 mM HEPES (pH 6), the reaction temperature was 30° C., and the reaction time was 1 hour. The amount of 4-hydroxyisoleucine produced when 10 mM of each inhibitor (EDTA, Cu^2+, Zn^2+) was added to the reaction system was measured. These values are relative to the 4-hydroxyisoleucine production observed with no inhibitor, which was set as 100%. The isoleucine hydroxylation activity was lost in the presence of the inhibitors.

For data set [3], the target named is T2, enzyme in 2-e-2 cell lysate (Bacillus thuringiensis, UniProt E2GIN1).
T2 construct: the collected and washed 2-e-2 cells were disrupted using a mortar; endogenous in cells; host or cells: Bacillus thuringiensis 2-e-2 cell lysate
The data set is described as follows: Effect of inhibitors on 4-hydroxyisoleucine production in the 2-e-2 cell lysate. The following applies: 10 mM inhibitor, pH 6, 30° C., 1 hour. Format: biochemical. Here is the method: (§1) The cells were cultured in the AMKP medium until OD660 of 3.2 was achieved, then the collected and washed 2-e-2 cells were disrupted using a mortar, and suspended in a buffer (50 mM HEPES (pH 7.0), 10% of glycerol, Complete Mini (Roche)) until a suspension (lysate) is obtained having a protein concentration of about 10 mg/ml including centrifugation precipitates. The centrifugation precipitates were finally suspended in physiological saline of the same volume as the cell lysate. These were each mixed with an equal volume of a 2× dioxygenase reaction mixture (10 mM Ile, […], 10 mM 2-oxoglutaric acid, 10 mM ascorbic acid, 100 mM HEPES (pH 7.0)), and the reaction proceeded at 30° C. for 1 hour. Similarly, resting cells used for the preparation of the cell lysate were washed, and suspended in physiological saline at a concentration 10 times that in the culture broth, the suspension was mixed with an equal volume of the 2× dioxygenase reaction mixture, and the reaction proceeded.
By using a cell lysate prepared from 2-e-2 cells at OD660 of 7 according to the method described in <5>, the effects of inhibitors on the 4-hydroxyisoleucine production were examined. […] The dioxygenase reaction mixture contained 5 mM Ile, 5 mM Fe^2+, 5 mM 2-oxoglutaric acid, 5 mM ascorbic acid, and 100 mM HEPES (pH 6), the reaction temperature was 30° C., and the reaction time was 1 hour. The amount of 4-hydroxyisoleucine which was produced when 10 mM of each inhibitor (EDTA, Cu^2+, Zn^2+) was added to the reaction system was measured. 4-Hydroxyisoleucine was analyzed by the method described in <2>. The isoleucine hydroxylation activity was inhibited by the inhibitors.

Data set [4] concerns the target T2, enzyme in 2-e-2 cell lysate. The data set is described as follows: Effects of enzyme cofactors on 4-hydroxyisoleucine production with 2-e-2 cell lysate. Type of data set: biochemical. The following applies: Lysate + 5 mM Ile + 5 mM cofactor; 50 mM HEPES pH 7. Here is the method: as §1
By using a cell lysate of the 2-e-2 cells in the logarithmic growth phase, the effects of cofactors on the 4-hydroxyisoleucine production reaction by hydroxylation of Ile were examined. A 50 mM HEPES (pH 7) reaction mixture was used containing final concentrations of 5 mM Ile and 5 mM of one of various cofactors with a cell lysate of the 2-e-2 cells (lysate) in the logarithmic growth phase prepared by the method described in <5> above, and the amount of 4-hydroxyisoleucine produced was measured.

Data set [5] has as its target T1, L-Ile hydroxylase. The data set is described as follows: Effects of addition of cofactors on 4-hydroxyisoleucine production with purified enzyme. The following applies: purified enzyme + 5 mM L-Ile + 5 mM cofactor; 100 mM HEPES pH 6. Type of data set: biochemical. From the text:
The effects of cofactors on the production of 4-hydroxyisoleucine by hydroxylation of Ile were examined by using the purified enzyme.

The next data set has as its system strain 2-e-2. The data set is described as follows: Effect of addition of cofactors on AMKP production in culture of strain 2-e-2. The following applies: culture supernatant; 30° C., 22 hours; control 1.34. Type of data set: cell-based, Bacillus thuringiensis. Here is the method:
The possibility of molecular oxygen uptake by hydroxylation was considered as a possible mechanism for the production of AMKP. Accordingly, the production of AMKP was analyzed when NAD(P)H, or Fe^2+, 2-oxoglutaric acid and ascorbic acid, were added during the culture of the 2-e-2 strain. NAD(P)H is a cofactor of monooxygenases and Fe^2+, 2-oxoglutaric acid and ascorbic acid are cofactors of dioxygenases.
The culture medium used in the previous screening was used as a control, and the production of AMKP was compared among cultures containing the cofactors as shown in Table 3. The culture temperature was 30° C., and the culture time was 22 hours. The concentration of AMKP in the culture supernatants was measured.

For data set [6], the target named is T1, L-Ile hydroxylase. The data set is described as follows: Substrate reaction characteristics of purified L-Ile hydroxylase. The following applies: 5 mM amino acid; purified enzyme; pH 6, 30° C., 1 hour; HPLC. Format: biochemical. Here is the method:
By using L-Ile hydroxylase prepared as described in Example 2, the reaction characteristics for various amino acids were evaluated. The enzyme solution and the reaction mixture were mixed, and then the reaction proceeded at 30° C. for 1 hour, and the production of new substances was evaluated by HPLC analysis. The enzymatic reaction solution contained 5 mM amino acid, 5 mM Fe^2+, 5 mM 2-oxoglutaric acid, 5 mM ascorbic acid, and 100 mM HEPES (pH 6). In addition to L-isoleucine, the amino acids D-isoleucine, L-leucine, L-valine, L-glutamic acid, and L-lysine were also individually evaluated. The produced 4-hydroxyisoleucine was analyzed as in Example 1. Like when using a cell lysate, production of a new substance could not be confirmed for amino acids other than L-isoleucine.

In data set [7] the test system is dioxygenase activity in fenugreek extract. The following applies: cited from earlier work.
The target of data set [8] is T2, enzyme in 2-e-2 cell lysate. The data set is described as follows: Substrate reaction characteristics of enzyme in 2-e-2 cell lysate. Type of data set: biochemical. The settings on record: 5 mM amino acid, pH 7, 30° C., 1 hour, TLC or amino acid analysis. Here is the method: as §1
By using a cell lysate prepared from 2-e-2 cells at OD660 of 7 according to the method described in <5>, the reaction characteristics for various amino acids were evaluated. The cell lysate and a substrate solution were mixed, then the reaction proceeded at 30° C. for 1 hour, and the production of new substances was evaluated by TLC or amino acid analysis. The substrate reaction mixture contained 5 mM amino acid, 5 mM Fe^2+, 5 mM 2-oxoglutaric acid, 5 mM ascorbic acid, and 100 mM HEPES (pH 7). In addition to L-isoleucine, the amino acids L-leucine, L-valine, L-glutamic acid, and L-lysine were each individually evaluated. The 4-hydroxyisoleucine which was produced was analyzed by the method described in Example 1. Production of amino acids other than L-isoleucine was not observed.

Data set [9] in a line: Optimum pH, optimum temperature and temperature stability of purified L-Ile hydroxylase. Format: biochemical, Bacillus thuringiensis. The settings on record: enzyme solution pH 7.0 incubated 1 hour at 0 to 70° C. Here is the method:
By using L-Ile hydroxylase prepared as described in Example 2, pH dependency on the producing of the 4-hydroxyisoleucine was evaluated. The enzymatic reaction solution contained 5 mM L-Ile, 5 mM Fe^2+, 5 mM 2-oxoglutaric acid, 5 mM ascorbic acid and 200 mM GTA (pH 3 to 12). The reaction temperature was 30° C. […] Production of a large amount was confirmed at pH 4 to 8, and production of the most 4-hydroxyisoleucine was confirmed at pH 5 to 8.
By using L-Ile hydroxylase prepared as described in Example 2, the optimum temperature of the 4-hydroxyisoleucine production activity was evaluated. The enzymatic reaction solution contained 5 mM Ile, 5 mM Fe^2+, 5 mM 2-oxoglutaric acid, 5 mM ascorbic acid, and 100 mM HEPES (pH 6). […] High production was confirmed for the temperature range of 0 to 40° C.
By using L-Ile hydroxylase prepared as described in Example 2, the temperature stability during production of 4-hydroxyisoleucine was evaluated. The enzyme solution at pH 7.0 was incubated at 0 to 70° C. for 1 hour, and then the Ile hydroxylation activity was measured. The enzymatic reaction solution contained 5 mM Ile, 5 mM Fe^2+, 5 mM 2-oxoglutaric acid, 5 mM ascorbic acid, and 100 mM HEPES (pH 6), and the reaction temperature was 30° C. These values are relative to the storage temperature which produced the maximum amount of hydroxyisoleucine, which was set as 100%. […]

Data set [10] can be described thus: IDO activity assay in crude cell lysate of recombinant E. coli strains. Type of data set: biochemical, Escherichia coli. Here is the method:
2.4. The IDO activity assay in crude cell lysate of TG1[pMW119-IDO(Lys, 23) and TG1[pMW119-IDO(Lys, 32): To investigate the IDO activity in crude cell lysates of recombinant E. coli strains, the following procedures were carried out. Cells from 5 ml of culture were harvested by centrifugation at 4° C., re-suspended in 0.5 ml of buffer A*(50 mM TRIZMA, 5% glycerol, 1 mM EDTA, 1 mM DTT, pH 7 adjusted by HCl) and disrupted by sonication at 4° C. The reaction mixture (50 μl) contained 50 mM HEPES pH 7.0, 5 mM Ile, 0.5 mM α-ketoglutarate, 5 mM ascorbate, 5 mM FeSO4, and an aliquot of the protein preparation. The reaction was incubated at 34° C. for 1 hour with shaking. The synthesized 4HIL was detected using TLC or HPLC analysis as described in Example 4.

On to `C[C@@H]([C@H](C)O)[C@H](N)C(=O)O` [4-Hydroxy-L-isoleucine, (2S,3R,4S)-4-hydroxy-L-isoleucine], for which the insulinotropic activity result (in the data set on human pancreatic islets; in data set [1]) was “insulinotropic activity” throughout.

In the case of `O=C(O)CN(CCN(CC(=O)O)CC(=O)O)CC(=O)O` [EDTA], the “activity of IDO(Lys,23) in the presence of the substance” value on IDO(Lys,23) is listed as “completely blocked”. Besides, the “Relative activity (%)” value on L-Ile hydroxylase [2] is given as 0%. For the same molecule, in [3], the “isoleucine hydroxylation activity in presence of inhibitor” value is listed as “inhibited”.

Take `[Fe+2]` [Fe^2+]: the “HIL production” value in data set [4] amounted to 0.00 mM. Also, the “HIL” value at L-Ile hydroxylase [5] turned out to be 0.00 mM. The “AMKP concentration” value with strain 2-e-2 stood at 2.53 mM.

In the case of `CC[C@H](C)[C@H](N)C(=O)O` [L-Isoleucine, L-isoleucine], at L-Ile hydroxylase [6], the “Product (reactivity for each amino acid)” value was “Produced (HIL)”. In data set [7], the “isoleucine concentration that inhibits the activity of the enzyme” value was at least 20 mM. Besides, in [8], the “Product (reactivity for various amino acids)” value is given as “Produced (HIL)”.

Regarding NAD(P)H, in the data set on strain 2-e-2, the “AMKP concentration” value is given as 1.58 mM.

B1: L-Ile hydroxylase: L-isoleucine dioxygenase purified from Bacillus thuringiensis strain 2-e-2, SEQ ID NO: 2 (protein, listed as Bacillus thuringiensis)
chain: KMSGFSIEEKVHEFESKGFLEISNEIFLQEEENHSLLTQAQLDYYNLEDDAYGECRARSYSRYIKYVDSPDYILDNSNDYFQSKEYNYDDGGKVRQFNSINDSFLCNPLIQNIVRFDTEFAFKTNIIDKSKDLIIGLHQVRYKATKERPSFSSPIWLHKDDEPVVFLHLMNLSNTAIGGDNLIANSPREINQFISLKEPLETLVFGQKVFHAVTPLGTECSTEAFRDILLVTFSYKETK
Take B1: in data set [9], the “temperature at which enzyme was inactivated” value is at least 60 °C. Also, in [10], the “IDO activity in comparison with IDO(Lys,32)” value was determined as 5 times.
